≈ marks a conversion by molar mass, not a printed value.
Tests used:
B16 melanoma cells = assay: in vitro melanin production inhibition test; format: cell-based; details: Mus musculus, concentration inhibiting production of melanin by 50%, cultured for 72 hours, theophylline 2 mmol/L, melanin per unit amount of protein
Description: The 4-(3-alkoxybutyl)phenol compound obtained in the above-mentioned Production Example 1 was subjected to the following melanin production inhibition test. Note here that as a comparison target, arbutin, ascorbic acid, kojic acid, and linoleic acid, which are known to have a melanin production-inhibitory action, were used. B16 melanoma cells were seeded in a minimum essential medium (MEM) supplemented with 10 vol% fetal bovine serum in 12-well plates at 1 × 10^4 cells/well, and pre-cultured for 24 hours by a usual method. After pre-culture, the medium was replaced to a test medium to which each evaluation sample had been added at various concentrations, and the medium was cultured for 72 hours. As the test medium, the above-mentioned pre-culture medium to which theophylline had been added at 2 mmol/L was used. After culture, cells were collected and dissolved in 1 mol/L of an aqueous solution of sodium hydroxide containing 10 vol% dimethyl sulfoxide, and an OD475 value of the solution was measured and the value was defined as an index of the amount of melanin. Furthermore, at the same time, by using Coomasie Plus Protein Assay Kit (manufactured by PIERCE), the total amount of protein in the solution was measured, and the amount of melanin per unit amount of protein was calculated. Based on the amount of melanin per unit amount of protein, the melanin production inhibition rate was calculated per each addition concentration from the following formula. Melanin production inhibition rate (%) = (A-B)/A [formula] (wherein A denotes the amount of melanin per unit amount of protein when no sample was added, and B denotes the amount of melanin per unit amount of protein when a sample was added). Next, a graph in which the concentration of the added sample is plotted on the axis of abscissas, and a melanin production inhibition rate is plotted in the axis of ordinates was formed, and concentration at which each evaluation sample inhibits the production of melanin by 50% (IC50) was determined from this graph.

Solubility test = format: physicochemical; details: thermodynamic from solid, 0.1 g compound + 1 mL solvent, heated at 40°C for 10 min., returned to room temperature, visual observation
Description: By using 4-(3-ethoxybutyl)phenol obtained in the above-mentioned Production Example 1, the following solubility test was carried out. Note here that as a comparison target, 4-(3-hydroxybuty)phenol was used.
To 0.1 g of each compound, 1 mL of each solvent described in the following table 1 was added. The mixture was heated at 40°C for 10 min., and then the temperature was returned to room temperature. The solubility in the solvent at this time was evaluated by visual observation. The evaluation was carried out in which a case where it was dissolved was evaluated as "a" and a case where insolubles were left was evaluated as "b."

[1] = test system: cultured skin model containing melanin cells (MEL-300, Asian Doner, manufactured by Kurabo Industries, Ltd.); assay: Melanin production inhibition test using three-dimensional cultured skin model; format: cell-based; details: 336 h, cultured for 14 days, read-out: Melanin production inhibition rate (% with respect to control); for inhibition at 100 µM: Addition concentration 100 µM; for inhibition at 50 µM: Addition concentration 50 µM
From the text: 4-(3-alkoxybutyl)phenol obtained in the above-mentioned Production Example 1 was subjected to the below-mentioned melanin production inhibition test. Note here that as a comparison target, 4-(3-hydroxybutyl)phenol in which an alkyl group had been removed from 4-(3-alkoxybutyl)phenol -and 4-(3-acetoxybutyl)phenol and 4-(3-propanoyloxybutyl)phenol as an ester compound having the same number of carbon atoms, were used.
To a skin model cup of a cultured skin model containing melanin cells (MEL-300, Asian Doner, manufactured by Kurabo Industries, Ltd.), 0.2 mL of a solution of a test substance was placed, and the skin model was cultured for 14 days by using an LLMM medium attached to the product. During the culture period, the medium was replaced by a new medium every three days. After culture for 14 days, the skin model was washed, the survival rate was measured by fluorescence measurement (Excitation: 560 nm, Emission: 590 nm) using an AlamarBlue reagent (manufactured by Molecular Probe), and the amount of melanin synthesized in each skin model was measured. The amount of melanin synthesized was determined by the colorimetric determination (405 nm) of a solution obtained by immersing each skin model in PBS so as to separate a cell layer, then washing it with PBS and hydrous ethanol, adding 0.2 mL of a 2N NaOH aqueous solution, and extracting melanin at 100°C for three hours.

[2] = oil or lipid, Glyceryl tri(2-ethylhexanoate)
[3] = oil or lipid, Isocetyl myristate
[4] = oil or lipid, Methylphenyl polysiloxane (Silicon FZ209)
[5] = oil or lipid, Octyldodecyl myristate
[6] = organic solvent or mixture, Dipropylene glycol
[7] = organic solvent or mixture, Ethanol

## OC[C@H]1O[C@@H](Oc2ccc(O)cc2)[C@H](O)[C@@H](O)[C@@H]1O [Arbutin, arbutin, reference compound]
B16 melanoma cells
  IC50: 30 µg/mL (≈ 110 µM)

## CC(O)CCc1ccc(O)cc1 (stereo not drawn) [4-(3-Hydroxybutyl)phenol, 4-(3-hydroxybutyl)phenol, reference compound]
Solubility test; [2]
  solubility at 10 min: < 100 mg/mL
Solubility test; [3]
  solubility at 10 min: < 100 mg/mL
Solubility test; [4]
  solubility at 10 min: < 100 mg/mL
Solubility test; [5]
  solubility at 10 min: > 100 mg/mL
Solubility test; [6]
  solubility at 10 min: > 100 mg/mL
Solubility test; [7]
  solubility at 10 min: > 100 mg/mL
[1]
  inhibition at 100 µM: 18.6%

## O=c1cc(CO)occ1O [Kojic acid, kojic acid, reference compound]
B16 melanoma cells
  IC50: 180 µg/mL (≈ 1270 µM)

## COC(C)CCc1ccc(O)cc1 (stereo not drawn) [4-(3-Methoxybutyl)phenol, 4-(3-methoxybutyl)phenol]
B16 melanoma cells
  IC50: 2 µg/mL (≈ 11.1 µM)
[1]
  inhibition at 100 µM: 55.6%

## CC(=O)OC(C)CCc1ccc(O)cc1 (stereo not drawn) [4-(3-Acetoxybutyl)phenol, 4-(3-acetoxybutyl)phenol, reference compound]
[1]
  inhibition at 100 µM: 26.7%

## CC(C)OC(C)CCc1ccc(O)cc1 (stereo not drawn) [4-(3-Isopropoxybutyl)phenol, 4-(3-isopropoxybutyl)phenol]
B16 melanoma cells
  IC50: 2 µg/mL (≈ 9.6 µM)
[1]
  inhibition at 50 µM: 56.9%

## O=C1O[C@H]([C@@H](O)CO)C(O)=C1O [Ascorbic acid, ascorbic acid, reference compound]
B16 melanoma cells
  IC50: 60 µg/mL (≈ 341 µM)

## CCC(=O)OC(C)CCc1ccc(O)cc1 (stereo not drawn) [4-(3-Propanoyloxybutyl)phenol, 4-(3-propanoyloxybutyl)phenol, reference compound]
[1]
  inhibition at 50 µM: 18.4%

## CCCOC(C)CCc1ccc(O)cc1 (stereo not drawn) [4-(3-Propoxybutyl)phenol, 4-(3-propoxybutyl)phenol]
B16 melanoma cells
  IC50: 2.5 µg/mL (≈ 12 µM)
[1]
  inhibition at 50 µM: 69.5%

## CCOC(C)CCc1ccc(O)cc1 (stereo not drawn) [4-(3-Ethoxybutyl)phenol, 4-(3-ethoxybutyl)phenol]
Solubility test; [2]
  solubility at 10 min: > 100 mg/mL
Solubility test; [3]
  solubility at 10 min: > 100 mg/mL
Solubility test; [4]
  solubility at 10 min: > 100 mg/mL
Solubility test; [5]
  solubility at 10 min: > 100 mg/mL
Solubility test; [6]
  solubility at 10 min: > 100 mg/mL
Solubility test; [7]
  solubility at 10 min: > 100 mg/mL
B16 melanoma cells
  IC50: 2 µg/mL (≈ 10.3 µM)
[1]
  inhibition at 100 µM: 56%

## CCCCC/C=C\C/C=C\CCCCCCCC(=O)O [Linoleic acid, linoleic acid, reference compound]
B16 melanoma cells
  IC50: 4 µg/mL (≈ 14.3 µM)

Reference: EP2556819A1, “EXTERNAL SKIN PREPARATION” (Kao Corporation, priority 2010, dated 2011)
